# Like-named read-outs stand apart in the source and are kept apart here.
# Experiments:
# Format in all cases: cell-based, human
# SK-MEL-2 = experiment: SRB anticancer assay, melanoma; conditions: for GI50: Homo sapiens, SK-MEL-2, 48 h; for Log10GI50: SK-MEL-2, present compounds
# HCT-116 = experiment: SRB anticancer assay, colon; conditions: Homo sapiens, HCT-116, 48 h
# K-562 = experiment: SRB anticancer assay, leukemia; set-up: Log10GI50: unit not given here; conditions: for GI50: Homo sapiens, K562, K-562, 48 h; for Log10GI50: K-562, present compounds
# A498 = experiment: SRB anticancer assay, renal; set-up: Log10GI50: unit not given here; conditions: for Log10GI50: A498, present compounds; for GI50: Homo sapiens, A498, 48 h
# NCI-H460 = experiment: SRB anticancer assay, non-small lung; conditions: Homo sapiens, NCI-H460, 48 h
# RXF 393 = experiment: SRB anticancer assay, renal; set-up: Log10GI50: unit not given here; conditions: for GI50: Homo sapiens, RXF 393, 48 h; for Log10GI50: RXF 393, present compounds
# SNB-75 = experiment: SRB anticancer assay, CNS; set-up: Log10GI50: unit not given here; conditions: for GI50: Homo sapiens, SNB-75, 48 h; for Log10GI50: SNB-75, present compounds
# SNB-19 = experiment: SRB anticancer assay, CNS; set-up: Log10GI50: unit not given here; conditions: for GI50: Homo sapiens, SNB-19, 48 h; for Log10GI50: SNB-19, present compounds
# KM12 = experiment: SRB anticancer assay, colon; conditions: Homo sapiens, KM12, 48 h
# OVCAR-8 = experiment: SRB anticancer assay, ovarian; set-up: Log10GI50: unit not given here; conditions: for GI50: Homo sapiens, OVCAR-8, 48 h; for Log10GI50: OVCAR-8, present compounds
# NCI-H322M = experiment: SRB anticancer assay, non-small lung; conditions: Homo sapiens, 48 h
# UACC-257 = experiment: SRB anticancer assay, melanoma; conditions: for GI50: Homo sapiens, UACC-257, 48 h; for Log10GI50: UACC-257, present compounds
# SF-268 = experiment: SRB anticancer assay, CNS; set-up: Log10GI50: unit not given here; conditions: for GI50: Homo sapiens, SF-268, 48 h; for Log10GI50: SF-268, present compounds
# SF-295 = experiment: SRB anticancer assay, CNS; set-up: Log10GI50: unit not given here; conditions: for GI50: Homo sapiens, SF-295, 48 h; for Log10GI50: SF-295, present compounds
# MALME-3M = experiment: SRB anticancer assay, melanoma; set-up: Log10GI50: unit not given here; conditions: for GI50: Homo sapiens, Malme-3M, 48 h; for Log10GI50: MALME-3M, present compounds
# 786-0 = experiment: SRB anticancer assay, renal; conditions: for Log10GI50: 786-0, present compounds; for GI50: Homo sapiens, 786-0, 48 h
# HS 578T = experiment: SRB anticancer assay, breast; set-up: Log10GI50: unit not given here; conditions: for GI50: Homo sapiens, 48 h
# SK-OV-3 = experiment: SRB anticancer assay, ovarian; conditions: Homo sapiens, SK-OV-3, 48 h
# Breast cancer cell lines = experiment: SRB anticancer assay, panel result; conditions: for mean graph midpoint value (MG_MID) of Log10 GI50 / mean graph midpoint value (MG_MID) of log10 TGI / CC50: Breast panel; for mean graph midpoint value (MG_MID) of log10 TGI: total inhibition of net cell growth; for CC50 / GI50: Homo sapiens; for CC50: 50% net cell death, read-out: mean graph midpoint value (MG_MID) of Log10 LC50 (converted); for GI50: six breast cancer cell lines, exposure at least 48 h, read-out: GI50, range over the panel
# Experimental: The compounds were evaluated for anticancer activity against sixty human cancer cells derived from nine cancer types (leukemia cell line, non-small-cell lung cell line, colon cell line, CNS cell line, melanoma cell line, ovarian cell line, prostate cell line, renal cancer cell line and breast cancer cell line) as shown in Table 1. For each compound, dose response curves for each cell line were measured at a minimum of five concentrations at 10 fold dilutions. A protocol of 48 h continuous drug exposure was used and a sulforhodamine B (SRB) protein assay was used to estimate cell viability or growth.
# SK-MEL-5 = experiment: SRB anticancer assay, melanoma; conditions: Homo sapiens, SK-MEL-5, 48 h
# SK-MEL-28 = experiment: SRB anticancer assay, melanoma; set-up: Log10GI50: unit not given here; conditions: for GI50: Homo sapiens, SK-MEL-28, 48 h; for Log10GI50: SK-MEL-28, present compounds
# OVCAR-4 = experiment: SRB anticancer assay, ovarian; conditions: Homo sapiens, OVCAR-4, 48 h
# DU-145 = experiment: SRB anticancer assay, prostate; set-up: Log10GI50: unit not given here; conditions: for Log10GI50: DU-145, present compounds; for GI50: Homo sapiens, DU-145, 48 h
# HT29 = experiment: SRB anticancer assay, colon; conditions: Homo sapiens, HT-29; HT29, 48 h
# SN12C = experiment: SRB anticancer assay, renal; set-up: Log10GI50: unit not given here; conditions: for GI50: Homo sapiens, 48 h; for Log10GI50: present compounds
# NCI-H23 = experiment: SRB anticancer assay, non-small lung; conditions: for GI50: Homo sapiens, NCI-H23, 48 h; for Log10GI50: NCI-H23, present compounds
# A549/ATCC = experiment: SRB anticancer assay, non-small lung; set-up: Log10GI50: unit not given here; conditions: for GI50: Homo sapiens, 48 h; for Log10GI50: present compounds
# MDA-MB-231/ATCC = experiment: SRB anticancer assay, breast; set-up: Log10GI50: unit not given here; conditions: for GI50: 48 h; for Log10GI50: MDA-MB-231/ATCC, present compounds
# OVCAR-5 = experiment: SRB anticancer assay, ovarian; conditions: Homo sapiens, OVCAR-5, 48 h
# MCF7 = experiment: SRB anticancer assay, breast; conditions: Homo sapiens, MCF7, 48 h
# OVCAR-3 = experiment: SRB anticancer assay, ovarian; set-up: Log10GI50: unit not given here; conditions: for GI50: Homo sapiens, OVCAR-3, 48 h; for Log10GI50: OVCAR-3, present compounds
# SR = experiment: SRB anticancer assay, leukemia; conditions: Homo sapiens, 48 h
# [1] = Homo sapiens, MDA-MB-231, 48 h, MDA-MB-231/ATCC (row head MDA-MB-), read-out: GI50
smiles,measurement,setting,value
"COc1cc(-c2cncn2-c2ccc(-c3nc4ccc(F)cc4s3)cc2)ccc1F [Compound 4c, 6-Fluoro-2-(4-(5-(4-fluoro-3-methoxyphenyl)-1H-imidazol-1-yl)phenyl)benzo[d]thiazole]",GI50,SK-MEL-2,39.7 µM
same,Log10GI50,SK-MEL-2,−4.40 M
same,GI50,HCT-116,4.36 µM
same,GI50,K-562,3.93 µM
same,Log10GI50,K-562,−5.41
same,Log10GI50,A498,−7.36
same,GI50,A498,0.0432 µM
same,GI50,NCI-H460,5.7 µM
same,GI50,RXF 393,13.5 µM
same,Log10GI50,RXF 393,−4.87
same,GI50,SNB-75,12.6 µM
same,Log10GI50,SNB-75,−4.69
same,GI50,SNB-19,20.6 µM
same,Log10GI50,SNB-19,>−4.0
same,GI50,KM12,6.4 µM
same,GI50,OVCAR-8,15.2 µM
same,Log10GI50,OVCAR-8,−4.82
same,GI50,NCI-H322M,36.3 µM
same,GI50,UACC-257,4.11 µM
same,Log10GI50,UACC-257,−5.39 log10(M)
same,GI50,SF-268,12.7 µM
same,Log10GI50,SF-268,−4.51
same,GI50,SF-295,75.9 µM
same,Log10GI50,SF-295,−4.90
same,GI50,MALME-3M,11.1 µM
same,Log10GI50,MALME-3M,−4.95
same,Log10GI50,786-0,−4.44 log10 M
same,GI50,786-0,36.1 µM
same,GI50,HS 578T,11.5 µM
same,GI50,SK-OV-3,> 100 µM
same,mean graph midpoint value (MG_MID) of Log10 GI50,Breast cancer cell lines,−4.82 mol/L
same,mean graph midpoint value (MG_MID) of log10 TGI,Breast cancer cell lines,−4.02
same,CC50,Breast cancer cell lines,> 100 µM
same,GI50,Breast cancer cell lines,7.98 to 32.2 µM
same,GI50,SK-MEL-5,12.1 µM
same,GI50,SK-MEL-28,35.1 µM
same,Log10GI50,SK-MEL-28,−4.45
same,GI50,OVCAR-4,11.4 µM
same,Log10GI50,DU-145,−4.85
same,GI50,DU-145,14.3 µM
same,GI50,HT29,10.8 µM
same,GI50,SN12C,31.9 µM
same,Log10GI50,SN12C,−4.50
same,GI50,NCI-H23,8.25 µM
same,Log10GI50,NCI-H23,−5.08 log10(M)
same,GI50,A549/ATCC,12.3 µM
same,Log10GI50,A549/ATCC,−4.91
same,GI50,MDA-MB-231/ATCC; [1],32.2 µM
same,Log10GI50,MDA-MB-231/ATCC,−4.49
same,GI50,MDA-MB-231/ATCC; listed as head printed 231/ATCC (second line of MDA-MB-231/ATCC),—a
same,GI50,OVCAR-5,> 100 µM
same,GI50,MCF7,23.5 µM
same,GI50,OVCAR-3,5.71 µM
same,Log10GI50,OVCAR-3,−5.24
same,GI50,SR,4.99 µM
"COc1ccc(-c2cncn2-c2ccc(-c3nc4cc(OC)c(OC)c(OC)c4s3)cc2)cc1N [Compound 7j, 2-Methoxy-5-(1-(4-(5,6,7-trimethoxybenzo[d]thiazol-2-yl)phenyl)-1H-imidazol-5-yl)benzeneamine]",GI50,SK-MEL-2,6.04 µM
same,Log10GI50,SK-MEL-2,−5.22 M
same,GI50,HCT-116,3.78 µM
same,GI50,K-562,3.38 µM
same,Log10GI50,K-562,−5.47
same,Log10GI50,A498,−5.32
same,GI50,A498,4.83 µM
same,GI50,NCI-H460,4.69 µM
same,GI50,RXF 393,5.98 µM
same,Log10GI50,RXF 393,−5.22
same,GI50,SNB-75,52.3 µM
same,Log10GI50,SNB-75,−4.28
same,GI50,SNB-19,> 100 µM
same,Log10GI50,SNB-19,>−4.0
same,GI50,KM12,3.8 µM
same,GI50,OVCAR-8,6.19 µM
same,Log10GI50,OVCAR-8,−5.21
same,GI50,NCI-H322M,25.7 µM
same,GI50,UACC-257,> 100 µM
same,Log10GI50,UACC-257,>−4.0 log10(M)
same,GI50,SF-268,47 µM
same,Log10GI50,SF-268,−4.33
same,GI50,SF-295,4.44 µM
same,Log10GI50,SF-295,−5.35
same,GI50,MALME-3M,2.48 µM
same,Log10GI50,MALME-3M,−5.61
same,Log10GI50,786-0,−5.24 log10 M
same,GI50,786-0,5.73 µM
same,GI50,HS 578T,6.21 µM
same,Log10GI50,HS 578T; present compounds,−4.55
same,GI50,SK-OV-3,> 100 µM
same,mean graph midpoint value (MG_MID) of Log10 GI50,Breast cancer cell lines,−4.96 mol/L
same,mean graph midpoint value (MG_MID) of log10 TGI,Breast cancer cell lines,>−4.0
same,CC50,Breast cancer cell lines,> 100 µM
same,GI50,Breast cancer cell lines,3.02 to 28.3 µM
same,GI50,SK-MEL-5,1.73 µM
same,GI50,SK-MEL-28,13.7 µM
same,Log10GI50,SK-MEL-28,−4.86
same,GI50,OVCAR-4,6.29 µM
same,Log10GI50,DU-145,−5.20
same,GI50,DU-145,6.38 µM
same,GI50,HT29,3.87 µM
same,GI50,SN12C,9.44 µM
same,Log10GI50,SN12C,−5.03
same,GI50,NCI-H23,4.76 µM
same,Log10GI50,NCI-H23,−5.32 log10(M)
same,GI50,A549/ATCC,5.77 µM
same,Log10GI50,A549/ATCC,−5.24
same,GI50,MDA-MB-231/ATCC; [1],> 100 µM
same,GI50,"MDA-MB-231/ATCC; Homo sapiens, MDA-MB-231, 48 h, row head printed 231/ATCC (second line of MDA-MB-231/ATCC), read-out: GI50",28.3 µM
same,Log10GI50,MDA-MB-231/ATCC,>−4.0
same,GI50,OVCAR-5,> 100 µM
same,GI50,MCF7,4.07 µM
same,GI50,OVCAR-3,5.18 µM
same,Log10GI50,OVCAR-3,−5.29
same,GI50,SR,3.43 µM

# Source: patent US9187467B2, “2-phenyl benzothiazole linked imidazole compounds as potential anticancer agents and process for the preparation thereof” (Council of Scientific and Industrial Research, priority 2012, dated 2015)
